Test results taken from PubChem BioAssay AID200 (DTP/NCI, 2004).
Values joined by “and” are separate entries in the source; they are usually repeats but may differ in a detail not shown here. Identical values can stand only once. Inconclusive results and toxic doses are left out. Where a SMILES comes first, the peptide text is derived from it.

Tested on: B6C3F1 mice, B16 melanoma ip, median survival T/C
Assay: NCI In Vivo Anticancer Drug Screen. Data for tumor model B16 Melanoma (intraperitoneal) in B6C3F1 mice
Conditions: endpoint: median survival time, schedule: Q01DX009 (ip), higher = longer survival
Summary of the method: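 Antitumor effect was judged in mice with transplanted tumors by dividing the treated group's survival measure by that of vehicle controls.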

[1] = dose: 12.5 mg/kg/injection, vehicle: saline with Tween-80
[2] = dose: 12.5 mg/kg/injection, vehicle: suspension in saline
[3] = dose: 100.0 mg/kg/injection, vehicle: saline with Tween-80
[4] = dose: 200.0 mg/kg/injection, vehicle: saline with Tween-80
[5] = dose: 50.0 mg/kg/injection, vehicle: saline with Tween-80
[6] = dose: 25.0 mg/kg/injection, vehicle: saline with Tween-80
[7] = dose: 400.0 mg/kg/injection, vehicle: saline with Tween-80
[8] = dose: 12.5 mg/kg/injection, vehicle: Klucel (hydroxypropylcellulose) (HPC)
[9] = dose: 25.0 mg/kg/injection, vehicle: Klucel (hydroxypropylcellulose) (HPC)
[10] = dose: 50.0 mg/kg/injection, vehicle: Klucel (hydroxypropylcellulose) (HPC)
[11] = dose: 100.0 mg/kg/injection, vehicle: Klucel (hydroxypropylcellulose) (HPC)
[12] = dose: 25.0 mg/kg/injection, vehicle: saline
[13] = dose: 50.0 mg/kg/injection, vehicle: saline
[14] = dose: 100.0 mg/kg/injection, vehicle: saline

Cn1cnc([N+](=O)[O-])c1Sc1nc(N)nc2c1ncn2C1OC(CO)C(O)C1O (stereo not given) was tested, and the T/C (dose: 3.12 mg/kg/injection, vehicle: suspension in saline) was 116 % of control, the T/C (dose: 3.13 mg/kg/injection, vehicle: saline with Tween-80) was 111 % of control and the T/C (dose: 6.25 mg/kg/injection, vehicle: saline with Tween-80) was 97 % of control. For the same molecule, the T/C (dose: 6.25 mg/kg/injection, vehicle: suspension in saline) was 117 % of control, the T/C [1] was 94 % of control and the T/C [2] was 93 % of control.

With Nc1nc(-c2cccc(S(=O)(=O)O)c2)c(Br)c(=O)[nH]1 the T/C [3] was 118 % of control and the T/C [4] was 122 % of control.

With CN(C)CCNc1ccc(CO)c2sc3ccc(O)cc3c(=O)c12 the T/C (dose: 18.0 mg/kg/injection, vehicle: saline with Tween-80) was 327 % of control, the T/C (dose: 30.0 mg/kg/injection, vehicle: saline with Tween-80) was 218 % of control and the T/C [5] was 295 % of control. The T/C (dose: 83.33 mg/kg/injection, vehicle: saline with Tween-80) was 327 % of control.

For CC(=O)NC(Cc1ccccc1)C(=O)NC(Cc1ccccc1)C(=O)O (stereo not drawn) (Ac-Phe-Phe-OH; configuration not given here), the T/C [6] was 107 % of control, the T/C [5] was 100 % of control and the T/C [3] was 102 % of control. The T/C [4] was 104 % of control and the T/C [7] was 92 % of control.

In the case of Cn1c(N)c(C(=O)/C=C/c2ccccc2)c(=O)n(C)c1=O, the T/C (dose: 1.56 mg/kg/injection, vehicle: Klucel (hydroxypropylcellulose) (HPC)) is reported as 101 % of control, the T/C (dose: 3.12 mg/kg/injection, vehicle: Klucel (hydroxypropylcellulose) (HPC)) is reported as 107 % of control and the T/C (dose: 6.25 mg/kg/injection, vehicle: Klucel (hydroxypropylcellulose) (HPC)) is reported as 106 % of control. The T/C [8] was 104 % of control, the T/C [9] was 105 % of control and the T/C [10] was 116 % of control.

With O=C(NC(Cc1ccccc1)C(=O)O)OCc1ccccc1 (stereo not given) the T/C [10] was 99 % of control and the T/C [11] was 102 % of control.

CC(C)(C)OC(=O)NC(CCCCNC(=O)OCc1ccccc1)C(=O)O (stereo not given) was tested, and the T/C (dose: 25.0 mg/kg/injection, vehicle: distilled water + Tween-80 + alcohol) was 111 % of control and the T/C (dose: 50.0 mg/kg/injection, vehicle: distilled water + Tween-80 + alcohol) was 96 % of control.

With O=S(=O)(SC(S(=O)(=O)c1ccccc1)S(=O)(=O)c1ccccc1)c1ccccc1 the T/C [8] was 109 % of control, the T/C [9] was 115 % of control and the T/C [10] was 114 % of control. The T/C [11] was 107 % of control, the T/C (dose: 200.0 mg/kg/injection, vehicle: Klucel (hydroxypropylcellulose) (HPC)) was 106 % of control and the T/C (dose: 400.0 mg/kg/injection, vehicle: Klucel (hydroxypropylcellulose) (HPC)) was 98 % of control.

In the case of O=C(O)C1CC1.[Ag], the T/C (dose: 0.78 mg/kg/injection, vehicle: water) is reported as 99 % of control, the T/C (dose: 1.56 mg/kg/injection, vehicle: water) is reported as 122 % of control and the T/C (dose: 3.12 mg/kg/injection, vehicle: water) is reported as 100 % of control. The T/C (dose: 6.25 mg/kg/injection, vehicle: water) was 92 % of control.

CC(O)CNC1c2ccccc2CC1O (stereo not given) was tested, and the T/C [12] was 90 % of control, the T/C [13] was 93 % of control and the T/C [14] was 89 % of control.

For CCCCCCCCCCCC(=O)NC1CC(O[C@H]2C[C@](O)(C(=O)CO)Cc3c(O)c4c(c(O)c32)C(=O)c2c(OC)cccc2C4=O)OC(C)C1O (stereo not given in full), the T/C (dose: 3.0 mg/kg/injection, vehicle: saline) was 171 % of control and 294 % of control, the T/C (dose: 6.0 mg/kg/injection, vehicle: saline) was 250 % of control and 333 % of control and the T/C (dose: 12.0 mg/kg/injection, vehicle: saline) was 333 % of control and 357 % of control. For the same molecule, the T/C (dose: 24.0 mg/kg/injection, vehicle: saline) was 122 % of control and 357 % of control and the T/C (dose: 48.0 mg/kg/injection, vehicle: saline) was 94 % of control.

With NNC(=O)c1ccncc1 the T/C (dose: 6.25 mg/kg/injection, vehicle: saline) was 112 % of control, the T/C (dose: 12.5 mg/kg/injection, vehicle: saline) was 99 % of control and the T/C [12] was 99 % of control. The T/C [13] was 105 % of control, the T/C (dose: 64.0 mg/kg/injection, vehicle: saline) was 100 % of control and the T/C [14] was 112 % of control. The T/C (dose: 128.0 mg/kg/injection, vehicle: saline) was 99 % of control.

With Nc1ncn(C2CC(O)C(CO)O2)c(=O)n1 (stereo not given) the T/C (dose: 0.25 mg/kg/injection, vehicle: Klucel (hydroxypropylcellulose) (HPC)) was 86 % of control, the T/C (dose: 0.25 mg/kg/injection, vehicle: saline) was 117 % of control and the T/C (dose: 15.62 micrograms/kg/injection, vehicle: Klucel (hydroxypropylcellulose) (HPC)) was 87 % of control. For the same molecule, the T/C (dose: 31.25 micrograms/kg/injection, vehicle: Klucel (hydroxypropylcellulose) (HPC)) was 86 % of control, the T/C (dose: 125.0 micrograms/kg/injection, vehicle: Klucel (hydroxypropylcellulose) (HPC)) was 114 % of control and the T/C (dose: 250.0 micrograms/kg/injection, vehicle: Klucel (hydroxypropylcellulose) (HPC)) was 97 % of control.

For C(=C\c1nc2ccccc2[nH]1)/c1nc2ccccc2[nH]1, the T/C [6] was 96 % of control, the T/C [5] was 98 % of control and the T/C [4] was 87 % of control.

S=C(NCNC(=S)c1ccncc1)c1ccncc1 was tested, and the T/C [5] was 102 % of control, the T/C [3] was 91 % of control and the T/C [4] was 100 % of control. For the same molecule, the T/C [7] was 104 % of control.

COc1ccc(/C=C/C(=O)c2cc(C(=O)O)c(OC)cc2OC)cc1OC was tested, and the T/C [1] was 100 % of control, the T/C [2] was 106 % of control and the T/C [6] was 94 % of control. For the same molecule, the T/C (dose: 25.0 mg/kg/injection, vehicle: suspension in saline) was 101 % of control, the T/C [5] was 96 % of control and the T/C (dose: 50.0 mg/kg/injection, vehicle: suspension in saline) was 106 % of control. For the same molecule, the T/C [3] was 88 % of control, the T/C (dose: 100.0 mg/kg/injection, vehicle: suspension in saline) was 96 % of control and the T/C [4] was 96 % of control. The T/C (dose: 200.0 mg/kg/injection, vehicle: suspension in saline) was 108 % of control and the T/C (dose: 400.0 mg/kg/injection, vehicle: suspension in saline) was 98 % of control.

With C=C1C(C)C2C(Cc3ccccc3)NC(=O)C23C(OC(C)=O)C=CC(C)(O)C(=O)C(C)C/C=C/C3C1O (stereo not given) the T/C (dose: 0.31 mg/kg/injection, vehicle: Klucel (hydroxypropylcellulose) (HPC)) was 101 % of control, the T/C (dose: 0.63 mg/kg/injection, vehicle: Klucel (hydroxypropylcellulose) (HPC)) was 98 % of control and the T/C (dose: 1.25 mg/kg/injection, vehicle: Klucel (hydroxypropylcellulose) (HPC)) was 109 % of control. The T/C (dose: 2.5 mg/kg/injection, vehicle: Klucel (hydroxypropylcellulose) (HPC)) was 101 % of control and the T/C (dose: 5.0 mg/kg/injection, vehicle: Klucel (hydroxypropylcellulose) (HPC)) was 106 % of control.

For Cc1oc2c(C)c3oc(=O)cc(C)c3cc2c1CCl, the T/C [1] was 91 % of control and 97 % of control, the T/C [6] was 87 % of control and 88 % of control (2×) and the T/C [5] was 102 % of control.

In the case of CCNC(=O)OCc1c(COC(=O)NCC)c(-c2ccc(Cl)c(Cl)c2)n2c1CCC2, the T/C (dose: 0.78 mg/kg/injection, vehicle: saline with Tween-80) is reported as 95 % of control, the T/C (dose: 3.12 mg/kg/injection, vehicle: saline with Tween-80) is reported as 119 % of control and the T/C [1] is reported as 162 % of control. For the same molecule, the T/C [6] was 103 % of control.

For NC(CSC(c1ccccc1)(c1ccccc1)c1ccccc1)C(=O)O (stereo not given), the T/C (dose: 4.0 mg/kg/injection, vehicle: Klucel (hydroxypropylcellulose) (HPC)) was 120 % of control and the T/C (dose: 16.0 mg/kg/injection, vehicle: Klucel (hydroxypropylcellulose) (HPC)) was 124 % of control.
